Data taken from PMC9218685, “Legume Plant Peptides as Sources of Novel Antimicrobial Molecules Against Human Pathogens” (Frontiers in Molecular Biosciences, 2022).
In brackets after ≈: the same amount, converted by molar mass. Where two headings read alike, the source gives them in different places. Ends that are not written are not given here. Peptide text beside a SMILES is read from it.

What was measured:
[1] = system: E. coli, S. enteritidis, P. aeruginosa, L. monocytogenes, S. aureus, E. faecalis, K. pneumoniae and A. baumannii; test: Antimicrobial activity assay, spectrum over the eight tested pathogenic bacteria; assay type: cell-based; conditions: 3 h treatment of ~10^7 log phase bacteria, peptides 25 to 0.8 µM; active = MBC ≤25 µM
How it was run: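 MBC taken as the lowest peptide concentration leaving no viable bacteria after 3 h exposure of ~10^7 log-phase cells. Peptides tested by 2-fold serial dilution, 25 µM down to 0.8 µM, in PPB (pH 7.4). Gram-positive and Gram-negative reference strains from ATCC, NCTC and HNCMO collections.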

A. baumannii = test: Scanning electron microscopy of cell morphology; assay type: cell-based, Acinetobacter baumannii; conditions: 30 min treatment, peptide 1.6 or 3.125 µM as in Figure 3 legend
[2] = system: Acinetobacter baumannii (ATCC 17978); test: microbe, parasite or virus in culture; assay type: cell-based; conditions: for MBC Acinetobacter baumannii: ATCC 17978, 3 h
How it was run: (§1)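 About 10^7 log-phase bacteria were treated for 3 h in potassium-phosphate buffer (pH 7.4) with 2-fold peptide dilutions from 25 µM downward. MBC was the lowest concentration that completely eliminated viable bacteria.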

[3] = system: Listeria monocytogenes (ATCC 19111); assay type: cell-based; conditions: ATCC 19111, 3 h
How it was run: as §1

[4] = system: Salmonella enterica (ATCC 13076); assay type: cell-based; conditions: ATCC 13076, 3 h
How it was run: as §1

[5] = system: Escherichia coli (ATCC 8739); assay type: cell-based; conditions: ATCC 8739, 3 h
How it was run: as §1

[6] = system: Pseudomonas aeruginosa (ATCC 27853); assay type: cell-based; conditions: ATCC 27853, 3 h
How it was run: as §1

[7] = system: Klebsiella pneumoniae (NCTC 13440); assay type: cell-based; conditions: NCTC 13440, 3 h
How it was run: as §1

[8] = system: Staphylococcus aureus (HNCMO112011); assay type: cell-based; conditions: HNCMO112011, 3 h
How it was run: as §1

[9] = system: Lambda DNA/HindIII marker; test: Gel retardation assay (DNA aggregation); assay type: binding; conditions: 100 ng DNA, 5 or 10 µM peptide in water, 30 min at room temperature, 1% agarose gel
C. albicans = test: Scanning electron microscopy of cell morphology; assay type: cell-based, Candida albicans; conditions: 30 min treatment, peptide 1.6, 3.125 or 25 µM as in Figure 4 legend
Protocol: A. baumannii and C. albicans were grown and treated the same way as for the membrane permeability assay. Cells were then fixed with 2.5% (v/v) glutaraldehyde in phosphate buffered saline (PBS, pH 7.4). 5 μl of the above bacterial and yeast suspensions were spotted on a silicon disk coated with 0.01% Poly-L-Lysine. The filters were washed twice with PBS and gradually dehydrated with ethanol series (30, 50, 70, 80%, and three times 100% ethanol, each for minimum 30 min). The samples were dried with a critical point dryer (K850: Quorum Technologies Ltd.), followed by 12 nm gold coating and observed under a JEOL JSM-7100F/LV scanning electron microscope.

[10] = system: Candida albicans W01 strain; test: microbe, parasite or virus in culture; assay type: cell-based; conditions: read-out: MFC, minimal fungicidal concentration against C. albicans
How it was run: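 Anti-Candida testing followed Szerencsés et al. (2021), with two-fold peptide dilutions from 25 μM to 0.125 μM and miconazole from 10.24 mM to 0.1 μM. MFC taken as the lowest concentration completely eliminating viable C. albicans.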

[11] = system: Enterococcus faecalis (ATCC 29212); assay type: cell-based; conditions: for Ability to kill E. faecalis: 3 h, ~10^7 log phase bacteria, peptides ≤25 µM; for MBC Enterococcus faecalis: ATCC 29212, 3 h
How it was run: as §1

[12] = peptides carrying a StrepII tag at their C-terminus, 25 µM, 10% Fetal Bovine Serum, 37°C, 18 h; StrepTactin-HRP Western blot
Protocol: Peptides were incubated in 10% Fetal Bovine Serum at 37°C for 18 h. Full length NCRs were used at 25 μM, while short derivatives at 50 μM. The serum proteins and peptides were separated by sodium dodecyl sulfate-polyacrylamide gel electrophoresis (SDS-PAGE, 12% bis-tris gel, MES buffer pH 7.3) and visualized by Coomassie blue staining. NCRs with StrepII tag at their C-terminus were also detected by Western blot analysis using Precision Protein StrepTactin-HRP conjugate antibody (BioRad) and Clarity Western ECL (BioRad) for chemiluminescence detection according to the supplier.
FIGURE S3 Serum stability assay. Full length NCRs, StrepII-tagged NCR peptides (25 µM) and shorter NCR derivatives (50 µM) were incubated in water or in 10% Fetal Bovine Serum (FBS) for 18 hours at 37°C. Serum proteins and the peptides were separated by SDS-Page and visualized by Coomassie blue staining or in the case of StrepII-tagged NCRs also with Western blot. […]

[13] = system: E. coli in vitro coupled transcription/translation; test: In vitro transcription/translation assay (GFP production); assay type: biochemical; conditions: RTS 100 E. coli HY Kit, 100 µM peptide or streptomycin, 2 technical parallels
Protocol: RTS 100 E. coli HY Kit (biotechrabbit Gmbh, Germany, catalog number: BR1400102) was used for the in vitro transcription/translation assay, according to the protocol. pIVEX2.3 control vector was used to produce GFP protein and to measure the translational efficiency. The amount of GFP produced was measured using a Hidex Plate Reader (Hidex Sense Microplate Reader with Plate Reader Software version 5064). […] All peptides and streptomycin were used at 100 µM concentration.
FIGURE 5 GFP production by E. coli in vitro coupled transcription-translation assay in the presence of 100 µM NCR or streptomycin. GFP fluorescence represents the average values of 2 technical parallels with their respective standard deviations (SD). *: p < 0.05, ****: p < 0.0001, as determined by one-way ANOVA.

Compound | Antibacterial spectrum over the eight tested bacterial strains [1] | Morphology of A. baumannii cells by SEM (A. baumannii) | MBC Acinetobacter baumannii [2] [µM] | MBC ([2]; ~10^7 log phase bacteria, Potassium-Phosphate Buffer pH 7.4, 3 h treatment, two-fold dilution series, lowest concentration completely eliminating viable bacteria, read-out: MBC, minimal bactericidal concentration against A. baumannii) [µM] | MBC Listeria monocytogenes [3] [µM] | MBC Salmonella enterica [4] [µM] | MBC Escherichia coli [5] [µM] | MBC Pseudomonas aeruginosa [6] [µM] | MBC Klebsiella pneumoniae [7] [µM] | MBC Staphylococcus aureus [8] [µM] | Aggregation of HindIII-digested λ DNA (DNA retained in loading wells) [9] | Morphology of C. albicans cells by SEM (C. albicans) | MFC ([10]; W01 strain) [µM] | Ability to kill E. faecalis [11] | MBC Enterococcus faecalis [11] [µM] | Stability in serum by Western blot [12] | Effect on GFP production (translation) [13] | MFC ([10]; C. albicans W01, two-fold dilution series, lowest concentration completely eliminating viable C. albicans) [µM]
CC[C@H](C)[C@H](NC(=O)[C@H](CS)NC(=O)[C@H](CCCCN)NC(=O)[C@@H](NC(=O)[C@@H](NC(=O)[C@H](Cc1ccccc1)NC(=O)[C@H](CCCCN)NC(=O)[C@H](CO)NC(=O)[C@H](CO)NC(=O)[C@@H](NC(=O)[C@H](CC(C)C)NC(=O)[C@H](CCCCN)NC(=O)[C@@H]1CCCN1C(=O)[C@H](CS)NC(=O)[C@H](CC(=O)O)NC(=O)[C@H](C)NC(=O)[C@@H](NC(=O)[C@@H](NC(=O)[C@H](CCCNC(=N)N)NC(=O)[C@H](CS)NC(=O)[C@H](CCC(=O)O)NC(=O)[C@@H](NC(=O)[C@H](CO)NC(=O)[C@@H](N)CCC(=O)O)[C@@H](C)CC)[C@@H](C)O)C(C)C)[C@@H](C)CC)C(C)C)[C@@H](C)CC)C(=O)N[C@@H](CCCCN)C(=O)N[C@@H](CCCCN)C(=O)N[C@@H](CCCNC(=N)N)C(=O)N[C@@H](CS)C(=O)N[C@H](C(=O)N[C@@H](C)C(=O)N[C@@H](CCC(N)=O)C(=O)N[C@@H](Cc1ccccc1)C(=O)N[C@@H](Cc1ccccc1)C(=O)N[C@@H](CCCCN)C(=O)O)C(C)C [MsNCR443] (H-ESIECRTVADCPKLISSKFVIKCIKKRCVAQFFK-OH; N-terminus assumed) | broad-spectrum activity | Filament-like structures | 1.6 (≈ 6.27 µg/mL) | 6.25 (≈ 24.5 µg/mL) | 12.5 (≈ 49 µg/mL) | 25 (≈ 98 µg/mL) | 1.6 (≈ 6.27 µg/mL) | 6.25 (≈ 24.5 µg/mL) | 12.5 (≈ 49 µg/mL) | 12.5 (≈ 49 µg/mL) | did not | aggregation of shrunken cells in a spider net like matrix | 6.25 (≈ 24.5 µg/mL) | – | – | – | – | –
CC[C@H](C)[C@H](N)C(=O)N[C@@H](CCCNC(=N)N)C(=O)N[C@H](C(=O)N[C@@H](Cc1c[nH]cn1)C(=O)N[C@@H](CS)C(=O)N[C@@H](CCCCN)C(=O)N[C@@H](CC(=O)O)C(=O)N[C@@H](CC(=O)O)C(=O)N[C@@H](Cc1ccccc1)C(=O)N[C@@H](CC(=O)O)C(=O)N[C@@H](CS)C(=O)N[C@H](C(=O)N[C@@H](CCC(=O)O)C(=O)N[C@@H](CC(N)=O)C(=O)N[C@@H](CCCNC(=N)N)C(=O)N[C@@H](CC(C)C)C(=O)N[C@@H](CCC(N)=O)C(=O)N[C@H](C(=O)NCC(=O)N[C@@H](CS)C(=O)N[C@@H](CCCNC(=N)N)C(=O)N[C@@H](CC(C)C)C(=O)N[C@@H](CCC(N)=O)C(=O)N[C@@H](CCCNC(=N)N)C(=O)N[C@@H](CCC(=O)O)C(=O)N[C@@H](CCCCN)C(=O)N1CCC[C@H]1C(=O)N[C@@H](CCCNC(=N)N)C(=O)N[C@@H](CS)C(=O)N[C@H](C(=O)N[C@@H](CC(N)=O)C(=O)N[C@@H](CC(C)C)C(=O)N[C@H](C(=O)N[C@@H](CS)C(=O)N[C@@H](CCCNC(=N)N)C(=O)N[C@@H](CS)C(=O)N[C@@H](CC(C)C)C(=O)N[C@@H](CCCNC(=N)N)C(=O)N[C@@H](CCCNC(=N)N)C(=O)O)C(C)C)C(C)C)C(C)C)[C@@H](C)CC)[C@@H](C)CC [NCR055] (H-IRIHCKDDFDCIENRLQVGCRLQREKPRCVNLVCRCLRR-OH; N-terminus assumed) | effective against six bacterial strains but not against S. aureus and K. pneumonia | – | 3.125 (≈ 14.9 µg/mL) | – | 3.125 (≈ 14.9 µg/mL) | 6.25 (≈ 29.7 µg/mL) | 6.25 (≈ 29.7 µg/mL) | 6.25 (≈ 29.7 µg/mL) | – | – | – | – | – | able to kill | 12.5 (≈ 59.5 µg/mL) | stable in the presence of FBS | – | –
[H]/N=C(/N)N[C@H]1[C@H](O)[C@@H](O)[C@H](O[C@@H]2O[C@@H](C)[C@](O)(C=O)[C@H]2O[C@@H]2O[C@@H](CO)[C@H](O)[C@@H](O)[C@@H]2NC)[C@@H](N/C(N)=N\[H])[C@@H]1O [streptomycin] | – | – | – | – | – | – | – | – | – | – | – | – | – | – | – | – | inhibited strongly | –
ITISNSSFGRIVYWNCKTDKDCKQHRGFNFRCRSGNCIPIRR-OH (cysteines drawn unpaired) [NCR183] | effective against five or four strains | – | – | – | 6.25 | 25 | 6.25 | 6.25 | – | – | – | – | – | able to kill | 25 | stable in the presence of FBS | – | –
YNLKYCTNDKDCPTMMCFPPDVSKCVWKTCYCVQKHKKKLKKKKKLTFNM-OH (cysteines drawn unpaired) [PsNCR349] | broad-spectrum activity | Only dead cells were visible | – | – | – | – | – | – | – | – | DNA remained in the wells | Flattening of cells | – | – | – | – | – | 3.125
